Test results published in PubChem BioAssay AID248 (DTP/NCI, 2004).
Several values for one entry are separate records, joined by “and”; a condition that tells them apart may be missing. Identical values can stand only once. Toxic doses and inconclusive results are not listed. No stated cut-off is given here; in the data, active means T/C of 150% or more; inactive means T/C below 125%.

System: L1210 leukemia ip in BDF1 mice, survival T/C
Experiment: NCI In Vivo Anticancer Drug Screen. Data for tumor model L1210 Leukemia (intraperitoneal) in B6D2F1 (BDF1) mice
Details: endpoint: mean survival time, higher = longer survival
How it was run: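 Transplantable tumor model; survival measured in treated vs vehicle control mice. Value = treated/control.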

[1] = dose: 25.0 mg/kg/injection, schedule: Q04DX003 (ip), vehicle: Klucel (hydroxypropylcellulose) (HPC)
[2] = dose: 50.0 mg/kg/injection, schedule: Q04DX003 (ip), vehicle: Klucel (hydroxypropylcellulose) (HPC)
[3] = dose: 100.0 mg/kg/injection, schedule: Q01DX001 (ip), vehicle: Klucel (hydroxypropylcellulose) (HPC)
[4] = dose: 100.0 mg/kg/injection, schedule: Q04DX003 (ip), vehicle: Klucel (hydroxypropylcellulose) (HPC)
[5] = dose: 200.0 mg/kg/injection, schedule: Q04DX003 (ip), vehicle: Klucel (hydroxypropylcellulose) (HPC)
[6] = dose: 400.0 mg/kg/injection, schedule: Q04DX003 (ip), vehicle: Klucel (hydroxypropylcellulose) (HPC)
[7] = dose: 100.0 mg/kg/injection, schedule: Q01DX009 (ip), vehicle: Klucel (hydroxypropylcellulose) (HPC)
[8] = dose: 200.0 mg/kg/injection, schedule: Q01DX009 (ip), vehicle: Klucel (hydroxypropylcellulose) (HPC)
[9] = dose: 400.0 mg/kg/injection, schedule: Q01DX009 (ip), vehicle: Klucel (hydroxypropylcellulose) (HPC)
[10] = dose: 100.0 mg/kg/injection, schedule: Q01DX009 (ip), vehicle: saline with Tween-80
[11] = dose: 200.0 mg/kg/injection, schedule: Q01DX009 (ip), vehicle: saline with Tween-80
[12] = dose: 100.0 mg/kg/injection, schedule: Q01DX009 (ip), vehicle: saline
[13] = dose: 200.0 mg/kg/injection, schedule: Q01DX009 (ip), vehicle: saline

Measured: T/C

c1ccc([Se]c2ccccn2)nc1
inactive: dose: 12.5 mg/kg/injection, schedule: Q01DX009 (ip), vehicle: Klucel (hydroxypropylcellulose) (HPC) 101 % of control | dose: 12.5 mg/kg/injection, schedule: Q04DX003 (ip), vehicle: Klucel (hydroxypropylcellulose) (HPC) 105 % of control | dose: 25.0 mg/kg/injection, schedule: Q01DX001 (ip), vehicle: Klucel (hydroxypropylcellulose) (HPC) 102 % of control | dose: 25.0 mg/kg/injection, schedule: Q01DX009 (ip), vehicle: Klucel (hydroxypropylcellulose) (HPC) 98 % of control | [1] 103 % of control | dose: 50.0 mg/kg/injection, schedule: Q01DX001 (ip), vehicle: Klucel (hydroxypropylcellulose) (HPC) 110 % of control | [2] 107 % of control and 110 % of control | [3] 105 % of control

Cn1cnc2c(C#N)c(C#N)nn2c1=O
inactive: dose: 50.0 mg/kg/injection, schedule: Q01DX001 (ip), vehicle: carboxymethylcellulose (CMC) 93 % of control | dose: 100.0 mg/kg/injection, schedule: Q01DX001 (ip), vehicle: carboxymethylcellulose (CMC) 90 % of control | dose: 200.0 mg/kg/injection, schedule: Q01DX001 (ip), vehicle: carboxymethylcellulose (CMC) 93 % of control

CCOC(=O)/C(O)=C\c1n[n+]([O-])ccc1Cl
inactive: dose: 100.0 mg/kg/injection, schedule: Q04DX002 (ip), vehicle: Klucel (hydroxypropylcellulose) (HPC) 104 % of control | dose: 200.0 mg/kg/injection, schedule: Q04DX002 (ip), vehicle: Klucel (hydroxypropylcellulose) (HPC) 112 % of control | dose: 400.0 mg/kg/injection, schedule: Q04DX002 (ip), vehicle: Klucel (hydroxypropylcellulose) (HPC) 93 % of control

CC/C=C(\C)C1(CC)C(=O)NC(=S)NC1=O
inactive: dose: 75.0 mg/kg/injection, schedule: Q01DX001 (ip), vehicle: carboxymethylcellulose (CMC) 89 % of control

Cc1ccc(NNS(=O)(=O)c2cccc([N+](=O)[O-])c2)c(Br)c1
inactive: [3] 96 % of control | [4] 102 % of control | dose: 200.0 mg/kg/injection, schedule: Q01DX001 (ip), vehicle: Klucel (hydroxypropylcellulose) (HPC) 94 % of control | [5] 96 % of control | dose: 400.0 mg/kg/injection, schedule: Q01DX001 (ip), vehicle: Klucel (hydroxypropylcellulose) (HPC) 100 % of control | [6] 96 % of control

N=c1ccn(O)cc1[N+](=O)[O-]
inactive: dose: 100.0 mg/kg/injection, schedule: Q01DX001 (ip), vehicle: saline 108 % of control | dose: 200.0 mg/kg/injection, schedule: Q01DX001 (ip), vehicle: saline 120 % of control | dose: 400.0 mg/kg/injection, schedule: Q01DX001 (ip), vehicle: saline 114 % of control

N#C/C(=C\c1ccc(-c2ccccc2)cc1)c1ccc([N+](=O)[O-])cc1
inactive: dose: 12.5 mg/kg/injection, schedule: Q01DX009 (ip), vehicle: saline with Tween-80 90 % of control | dose: 12.5 mg/kg/injection, schedule: Q04DX003 (ip), vehicle: saline with Tween-80 95 % of control | dose: 25.0 mg/kg/injection, schedule: Q01DX009 (ip), vehicle: saline with Tween-80 88 % of control | dose: 25.0 mg/kg/injection, schedule: Q04DX003 (ip), vehicle: saline with Tween-80 93 % of control | dose: 50.0 mg/kg/injection, schedule: Q04DX003 (ip), vehicle: saline with Tween-80 88 % of control

O=C(CC(CC(=O)c1ccccc1)c1ccco1)c1ccccc1
inactive: [7] 90 % of control | [4] 94 % of control | [8] 94 % of control | [5] 101 % of control | [9] 86 % of control | [6] 92 % of control

CCOC(=O)CNC(=O)C1OC(n2cnc3c(N)ncnc32)C2OC(C)(C)OC12 (stereo not given)
inactive: dose: 100.0 mg/kg/injection, schedule: Q01DX005 (ip), vehicle: saline 95 % of control | dose: 200.0 mg/kg/injection, schedule: Q01DX005 (ip), vehicle: saline 92 % of control

COC(=O)c1ccc(-c2cc(Cl)c3cc(S(=O)(=O)F)ccc3n2)cc1
inactive: [10] 94 % of control | [11] 100 % of control | dose: 400.0 mg/kg/injection, schedule: Q01DX009 (ip), vehicle: saline with Tween-80 95 % of control

CCCCCCCCC(C)NCCOC(=O)c1ccc(N)cc1 (stereo not given)
inactive: dose: 9.38 mg/kg/injection, schedule: Q01DX001 (ip), vehicle: other 102 % of control | dose: 18.75 mg/kg/injection, schedule: Q01DX001 (ip), vehicle: other 101 % of control | dose: 37.5 mg/kg/injection, schedule: Q01DX001 (ip), vehicle: other 98 % of control

N/C(=N\O)c1ccncc1
inactive: [12] 94 % of control | [13] 96 % of control

COc1c(Cl)c(Cl)c(Cl)c(Cl)c1Cl
inactive: [12] 89 % of control | dose: 100.0 mg/kg/injection, schedule: Q04DX003 (ip), vehicle: acetone 95 % of control | [13] 89 % of control | dose: 200.0 mg/kg/injection, schedule: Q04DX003 (ip), vehicle: acetone 94 % of control | dose: 400.0 mg/kg/injection, schedule: Q04DX003 (ip), vehicle: acetone 96 % of control

N#CC(C#N)=Cc1ccc(C=C(C#N)C#N)cc1
inactive: [1] 98 % of control | dose: 50.0 mg/kg/injection, schedule: Q01DX009 (ip), vehicle: Klucel (hydroxypropylcellulose) (HPC) 103 % of control | [2] 98 % of control | [7] 86 % of control | [4] 98 % of control and 105 % of control | [5] 100 % of control | [6] 108 % of control

CC12CCCCC1=CC(=O)CCC2 (stereo not given)
inactive: dose: 50.0 mg/kg/injection, schedule: Q01DX009 (ip), vehicle: saline with Tween-80 98 % of control | [10] 98 % of control | [11] 98 % of control

O=C(O)CCCN1CCCCC1
inactive: dose: 100.0 mg/kg/injection, schedule: Q04DX002 (ip), vehicle: saline 103 % of control | dose: 200.0 mg/kg/injection, schedule: Q04DX002 (ip), vehicle: saline 100 % of control | dose: 400.0 mg/kg/injection, schedule: Q04DX002 (ip), vehicle: saline 100 % of control

Cc1cc2c3ccc(C)[n+](C)c3ccc2n1C
inactive: dose: 1.25 mg/kg/injection, schedule: Q01DX009 (ip), vehicle: saline 109 % of control | dose: 2.5 mg/kg/injection, schedule: Q01DX009 (ip), vehicle: saline 115 % of control | dose: 2.5 mg/kg/injection, schedule: Q04DX003 (ip), vehicle: saline 112 % of control | dose: 5.0 mg/kg/injection, schedule: Q01DX009 (ip), vehicle: saline 115 % of control | dose: 5.0 mg/kg/injection, schedule: Q04DX003 (ip), vehicle: saline 110 % of control | dose: 9.5 mg/kg/injection, schedule: Q01DX001 (ip), vehicle: saline 106 % of control | dose: 10.0 mg/kg/injection, schedule: Q04DX003 (ip), vehicle: saline 112 % of control | dose: 20.0 mg/kg/injection, schedule: Q04DX003 (ip), vehicle: saline 103 % of control

CCn1c(=S)[nH]c2ccccc2c1=O
inactive: dose: 100.0 mg/kg/injection, schedule: Q04DX002 (ip), vehicle: saline with Tween-80 98 % of control | dose: 200.0 mg/kg/injection, schedule: Q04DX002 (ip), vehicle: saline with Tween-80 109 % of control | dose: 400.0 mg/kg/injection, schedule: Q04DX002 (ip), vehicle: saline with Tween-80 102 % of control

Cc1ccc(S(=O)(=O)/N=S(\Cc2ccccc2)c2ccccc2)cc1 (stereo not given)
inactive: [7] 92 % of control | [4] 93 % of control | [8] 89 % of control | [5] 97 % of control | [9] 92 % of control | [6] 98 % of control
